According to US4006231A, “N-aminosulfenylated derivatives of carbofuran” (priority 1974, dated 1977):
Values after ≈ are worked out from the molar mass of the structure shown.

Columns and labels:
adult female houseflies = experiment: whole plant or invertebrate; conditions: Musca domestica, topical, 24 h, read-out: Houseflies LD50
Procedure: Toxicity of the compounds of the present invention to houseflies was tested using the technique described by March and Metcalf (Bull. Calif. State Dept. Agr. 38, No. 2, 93-101 [1949]): Solutions of test compounds in acetone were prepared at a range of concentrations. Adult female houseflies (Muscadomesticus) were treated with one drop of acetone solution, applied to the prothorax, using a syringe calibrated to deliver 1.00 ± 0.05 mm^3 drops. Twenty flies were treated at each dosage, each test compound was applied at 8 to 10 dosage levels. Each test was replicated three times. […] A one-inch square of cotton saturated with 40% sugar solution was provided for food in each carton. The cartons of flies were held in a constant temperature chamber at 60° F and 60% relative humidity for 24 hours before mortality counts were made. Flies totally unable to make crawling or walking movements were counted as dead. LD50 values were calculated in the conventional manner.

[1] = tested on: larvae of Culex fatigans (mosquitoes); experiment: Toxicity to mosquitoes, fourth-instar larvae; conditions: Culex quinquefasciatus, 24 h, read-out: Mosquitoes LC50
Procedure: Toxicity of the compounds of the present invention to mosquitoes was tested using the technique described by Mulla, Metcalf and Geib (Mosquito News 28, No. 2, 236 [ 1966]): A 1% (w/v) stock solution was prepared by dissolving the test compound in acetone. The appropriate amount of stock solution was added with stirring to 100 ml of tap water and 20-25 fourth-instar larvae of Culex fatigans were placed in the solution. After 24 hours, the counts were taken. Larvae not able to rise to the surface on touch were counted as dead. Each concentration was run in duplicate and each material was run on two or three different days. The average percent mortality was plotted against the logarithm of the concentration (in ppm) and the LC50 value determined by inspection.

[2] = Acute oral toxicity to mice; conditions: mouse, in vivo
Procedure: Acute oral toxicity of the compounds of the present invention to mice was determined after the manner of Hollingworth, Fukuto and Metcalf (J. Agr. Food Chem. 15, 235 [ 1967]): Solutions of the compounds at each of a series of concentrations were prepared in olive oil or propylene glycol as solubility required. A dose of 0.25 ml of each solution was administered to each of four female white Swiss mice using the "bolus"-tipped syringe. […] Final mortality determinations were made 48 hours after treatment.

Mexican bean beetle [3] = experiment: Initial contact activity, Mexican bean beetle; format: in vivo; conditions: Epilachna varivestis, 48 hours exposure, read-out: % Kill, Mexican bean beetle, Initial
Procedure: (§1) Initial Contact Activity: One-half gram of test compound was dissolved in 40 ml of acetone and this solution was dispersed in 360 ml of water containing one drop of isooctylphenyl polyethoxyethanol. An aliquot of this solution was diluted with water to provide a solution containing 1250 ppm of active ingredient. […] At this time, the dead and living insects (or mites) were counted and the percent kill was calculated.

southern army worm [4] = experiment: Initial contact activity, southern army worm; format: in vivo, Prodenia eridania; conditions: 1250 ppm, 48 hours exposure
Procedure: as §1

pea aphid [5] = experiment: Initial contact activity, pea aphid; format: in vivo, Macrosiphum pisi; conditions: Acyrthosiphon pisum, 48 hours exposure, read-out: % Kill, pea aphid, Initial
Procedure: as §1

two-spotted spider mite [6] = experiment: Initial contact activity, two-spotted spider mite; format: in vivo; conditions: Tetranychus urticae, 48 hours exposure, read-out: % Kill, two-spotted spider mite, Initial
Procedure: as §1

milkweed bug [7] = experiment: Initial contact activity, milkweed bug; format: in vivo, Oncopeltus fascinatus; conditions: Oncopeltus fasciatus, 48 hours exposure, read-out: % Kill, milkweed bug, Initial
Procedure: as §1

plum curculio [8] = experiment: Initial contact activity, plum curculio; format: in vivo; conditions: Conotrachelus nenuphar, 48 hours exposure, read-out: % Kill, plum curculio, Initial
Procedure: as §1

granary weevil [9] = experiment: Initial contact activity, granary weevil; format: in vivo; conditions: Sitophilus granarius, 48 hours exposure, read-out: % Kill, granary weevil, Initial
Procedure: as §1

confused flour beetle [10] = experiment: Initial contact activity, confused flour beetle; format: in vivo; conditions: Tribolium confusum, 48 hours exposure, read-out: % Kill, confused flour beetle, Initial
Procedure: as §1

Mexican bean beetle [11] = experiment: Residual contact activity (7-day), Mexican bean beetle; format: in vivo; conditions: Epilachna varivestis, 48 h, surface aged seven days, read-out: % Kill, Mexican bean beetle, Residual (7-day)
Procedure: as §1
(§2) Residual Contact Activity: The residual contact activity of the compounds was determined on the same organisms using the technique described above, except that in each case the treated surface was allowed to dry and was exposed to normal light and air for seven days before introduction of the mites or insects. […]

southern army worm [12] = experiment: Residual contact activity (7-day), southern army worm; format: in vivo, Prodenia eridania; conditions: 1250 ppm, surface aged seven days; 2880 min
Procedure: as §1, §2

pea aphid [13] = experiment: Residual contact activity (7-day), pea aphid; format: in vivo, Macrosiphum pisi; conditions: Acyrthosiphon pisum, 48 h, surface aged seven days, read-out: % Kill, pea aphid, Residual (7-day)
Procedure: as §1, §2

two-spotted spider mite [14] = experiment: Residual contact activity (7-day), two-spotted spider mite; format: in vivo; conditions: Tetranychus urticae, 48 h, surface aged seven days, read-out: % Kill, two-spotted spider mite, Residual (7-day)
Procedure: as §1, §2

milkweed bug [15] = experiment: Residual contact activity (7-day), milkweed bug; format: in vivo, Oncopeltus fascinatus; conditions: Oncopeltus fasciatus, 48 h, surface aged seven days, read-out: % Kill, milkweed bug, Residual (7-day)
Procedure: as §1, §2

plum curculio [16] = experiment: Residual contact activity (7-day), plum curculio; format: in vivo; conditions: Conotrachelus nenuphar, 48 h, surface aged seven days, read-out: % Kill, plum curculio, Residual (7-day)
Procedure: as §1, §2

granary weevil [17] = experiment: Residual contact activity (7-day), granary weevil; format: in vivo; conditions: Sitophilus granarius, 48 h, surface aged seven days, read-out: % Kill, granary weevil, Residual (7-day)
Procedure: as §1, §2

confused flour beetle [18] = experiment: Residual contact activity (7-day), confused flour beetle; format: in vivo; conditions: Tribolium confusum, 48 h, surface aged seven days, read-out: % Kill, confused flour beetle, Residual (7-day)
Procedure: as §1, §2

Mexican bean beetle [19] = experiment: Systemic insecticidal activity, soil-watering technique, Mexican bean beetle; format: in vivo; conditions: Epilachna varivestis, 48 h, 25 ml to soil, infested after 3 days, counted 2 days later, read-out: % Kill, Mexican bean beetle, systemic
southern army worm [20] = experiment: Systemic insecticidal activity, soil-watering technique, southern army worm; format: in vivo, Prodenia eridania; conditions: 156 ppm, 25 ml to soil, infested after 3 days, counted 2 days later
pea aphid [21] = experiment: Systemic insecticidal activity, soil-watering technique, pea aphid; format: in vivo, Macrosiphum pisi; conditions: Acyrthosiphon pisum, 48 h, 25 ml to soil, infested after 3 days, counted 2 days later, read-out: % Kill, pea aphid, systemic
two-spotted spider mite [22] = experiment: Systemic insecticidal activity, soil-watering technique, two-spotted spider mite; format: in vivo; conditions: Tetranychus urticae, 48 h, 25 ml to soil, infested after 3 days, counted 2 days later, read-out: % Kill, two-spotted spider mite, systemic

Structure (SMILES) | LD50 (adult female houseflies) | LC50 [1] | LD50 at 48 h [2] | mortality at 1250 ppm (Mexican bean beetle [3]) | % Kill, southern army worm, Initial (southern army worm [4]) | mortality at 1250 ppm (pea aphid [5]) | mortality at 1250 ppm (two-spotted spider mite [6]) | mortality at 1250 ppm (milkweed bug [7]) | mortality at 1250 ppm (plum curculio [8]) | mortality at 1250 ppm (granary weevil [9]) | mortality at 1250 ppm (confused flour beetle [10]) | mortality at 1250 ppm (Mexican bean beetle [11]) | % Kill, southern army worm, Residual (7-day) (southern army worm [12]) | mortality at 1250 ppm (pea aphid [13]) | mortality at 1250 ppm (two-spotted spider mite [14]) | mortality at 1250 ppm (milkweed bug [15]) | mortality at 1250 ppm (plum curculio [16]) | mortality at 1250 ppm (granary weevil [17]) | mortality at 1250 ppm (confused flour beetle [18]) | mortality at 156 ppm (Mexican bean beetle [19]) | further results
CNC(=O)Oc1cccc2c1OC(C)(C)C2 [Carbofuran, 2,3-dihydro-2,2-dimethyl-7-benzofuranyl methylcarbamate] | ~6.7 mg/kg | 0.052 mg/L (≈ 0.235 µM) | ~2 mg/kg |  |  |  |  |  |  |  |  |  |  |  |  |  |  |  |  |  | 
CN(C)SN(C)C(=O)Oc1cccc2c1OC(C)(C)C2 [I, 2,3-Dihydro-2,2-dimethyl-7-benzofuranyl (Dimethylaminosulfenyl) (methyl)carbamate] | ~15 mg/kg | 0.027 mg/L (≈ 0.0911 µM) | 10 to 20 mg/kg | 100% | 100% | 100% | 100% | 100% | 100% | 100% | 100% | 95% | 80% | 95% | 3% | 100% | 5% | 63% | 0% | 100% | % Kill, southern army worm, systemic (southern army worm [20]): 100%; mortality at 156 ppm (pea aphid [21]): 100%; mortality at 156 ppm (two-spotted spider mite [22]): 73%
CN(SN1CCOCC1)C(=O)Oc1cccc2c1OC(C)(C)C2 [II, 2,3-Dihydro-2,2-dimethyl-7-benzofuranyl (Methyl)(morpholinosulfenyl)carbamate] | ~10.5 mg/kg | 0.048 mg/L (≈ 0.142 µM) | 10 to 20 mg/kg | 100% | 100% | 100% | 97% | 100% | 100% | 100% | 100% | 100% | 83% | 100% | 4% | 100% | 100% | 100% | 0% | 100% | % Kill, southern army worm, systemic (southern army worm [20]): 100%; mortality at 156 ppm (pea aphid [21]): 100%; mortality at 156 ppm (two-spotted spider mite [22]): 76%
